Measurements taken from patent US5508273A, “Substituted phosphonic acids and derivatives useful in treating bone wasting diseases” (priority 1993, dated 1996).

Assays:
[1] = molecular target: T1, human prostatic tyrosyl phosphatase (Homo sapiens, UniProt P15309); experiment: biochemical; settings: 30 minutes at 37° C., pH 5.5, (14C)-phosphotyrosine substrate; read-out: Tyr-Pase IC50
T1 construct: purchased Sigma Chemical Co
T1 sequence (P15309 33-386): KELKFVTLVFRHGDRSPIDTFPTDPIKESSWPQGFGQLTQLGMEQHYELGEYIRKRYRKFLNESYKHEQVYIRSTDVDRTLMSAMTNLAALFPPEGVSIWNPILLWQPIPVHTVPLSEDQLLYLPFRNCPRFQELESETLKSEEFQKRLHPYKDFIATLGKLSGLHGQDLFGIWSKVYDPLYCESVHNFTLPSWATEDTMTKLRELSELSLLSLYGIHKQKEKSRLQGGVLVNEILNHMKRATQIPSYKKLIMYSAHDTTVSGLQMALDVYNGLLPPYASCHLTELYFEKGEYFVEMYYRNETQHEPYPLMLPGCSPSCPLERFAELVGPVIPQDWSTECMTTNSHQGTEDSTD
Procedure: Inhibition of the activity of tyrosyl protein phosphatase was evaluated by incubating an aliquot of purified human prostatic tyrosyl protein acid phosphatase (Sigma Chemical Co.) with radiolabeled phosphotyrosine. The radiolabeled substrate, (^14 C)-phosphotyrosine, is separated from the product, (^14 C)-tyrosine by ion exchange chromatography and the production of radiolabeled tyrosine is quantified. Test compounds are screened at a concentration of one micromolar to 1 nM. The ability of test compounds to inhibit tyrosyl phosphatase was expressed as the % inhibition at the highest concentration of test compound tested and/or as the IC50 in Table 1.
The test compounds were incubated in the presence of tyrosyl acid phosphatase and radiolabeled substrate {(^14 C)-phosphotyrosine, (NEN Dupont Custom Synthesis)} plus cold O-phospho-L-tyrosine{(10 uM) (Sigma Chemical Co.)} in a 0.05 mM sodium acetate buffer (pH 5.5) for 30 minutes at 37° C. […] The incubation mixture was passed over an ion-exchange column {(Ag 1-X8) (Bio-Rad Laboratories)} and washed with 2.5 ml of distilled, deionized water. The total column effluent containing the radiolabeled product (^14 C-tyrosine) was collected and quantified by liquid scintillation spectroscopy. The test compounds IC50 was calculated using a quantal (all-or-none) dose-response calculation.

[2] = molecular target: T2, Human osteoclastic acid phosphatase (OAP) (Homo sapiens, UniProt P13686); experiment: Osteoclastic Acid Phosphatase (OAP) inhibition; assay type: biochemical; settings: pH 5.0, room temperature, 20 minutes; for inhibition at 100 µM: read-out: OAPase % Inh@100 uM
T2 construct: purified from hairy cell leukemia spleen; from tissue; host or cells: human hairy cell leukemia spleen
T2 sequence (P13686 22-325): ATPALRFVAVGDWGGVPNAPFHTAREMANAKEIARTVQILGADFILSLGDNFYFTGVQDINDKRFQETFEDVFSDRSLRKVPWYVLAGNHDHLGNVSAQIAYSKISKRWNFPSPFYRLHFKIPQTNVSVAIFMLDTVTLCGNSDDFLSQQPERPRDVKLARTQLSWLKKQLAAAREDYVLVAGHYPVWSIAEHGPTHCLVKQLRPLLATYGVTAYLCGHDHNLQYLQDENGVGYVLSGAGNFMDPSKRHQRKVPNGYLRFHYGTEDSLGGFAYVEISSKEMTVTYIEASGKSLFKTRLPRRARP
Procedure: Inhibitors of the enzyme are involved with the stimulation of osteoblast cell proliferation in cell culture which is predictive of enhancement of bone mass and bone formation in vivo. Inhibitors of osteoclastic acid phosphatase prevent the resorptive action of osteoclasts and thereby prevent the degradation of bone mass associated with osteoporosis.
The enzyme was stored at -80° C. and was diluted in 50 mM, pH 5.0, sodium acetate buffer prior to use. Test compounds were dissolved in ethanol, DMSO, or water and tested at 100 μM. The assay measures the ability of the enzyme to dephosphorylate methylumbelliferone phosphate to the product, methylumbelliferone, which is fluorescent. The enzyme assay is performed in 50 mM, pH 5.0, sodium acetate buffer as follows: 5 μL of compound was added to 150 μL Of buffered enzyme solution. […] The reaction was performed at room temperature at pH=5.0 and terminated after 20 minutes by the addition of 50 μL of 4N NaOH. The reaction product, methylumbelliferone, was measured by fluorescence determination using a Dynatech Microfluor Fluorescence detector.

[3] = tested on: osteoblast-line cells (mouse MC3T3-E 1 and human TE-85); experiment: Osteoblast cell proliferation (3H-thymidine incorporation); assay type: cell-based; settings: MC3T3-E1, control is 100%, cell line (MC3T3-E 1 or TE-85) not stated per value, read-out: Osteoblast Prolif (% XControl@ 0.01 uM)
Text: Compounds of the present invention have utility to treat bone wasting diseases including osteoporosis in animals including humans through enhancement of bone calcification as well as inhibition of bone degeneration or resorption. The compounds of the present invention have been evaluated as inhibitors of human prostatic tyrosyl phosphatase, an isoenzyme similar to a tyrosyl phosphatase present in human osteoblasts. Inhibitors of the enzyme are involved with the stimulation of osteoblast cell proliferation in cell culture which is predictive of enhancement of bone mass and bone formation in vivo. Inhibitors of osteoclastic acid phosphatase prevent the resorptive action of osteoclasts and thereby prevent the degradation of bone mass associated with osteoporosis. Table 1 reports the results of the compounds of the present invention in inhibiting human prostatic tyrosyl phosphatase and osteoclastic acid phosphatase. […] Their ability to stimulate osteoblast cell proliferation at 0.01 uM concentration is presented also in Table 1. […] However, such compounds may be useful as prodrugs to the acid (R^1 and R^2 equal H) and as intermediates useful in making the corresponding acid.
The action of select compounds to stimulate osteoblast growth can be measured in culture by estimating the rate of DNA synthesis by the rate of ^3 H-thymidine incorporation into DNA. Only cells undergoing mitosis will synthesize new DNA and thus only these cells will incorporate the radiolabeled DNA-specific thymidine. The stimulation of the proliferation and differentiation of bone-forming cells, osteoblasts, is a prerequisite for an increase in bone formation and bone mass. The ability of agents to increase osteoblast proliferation and differentiation can be predicted by their action on cultured osteoblast-line cells in vitro. In this test, mouse (MC3T3-E 1) cloned by Sudo et al. Koriyama, Japan) and human (TE-85) osteoblast-line cells (American Type Tissue Culture Collection, #CRL 1543, Rockville, Md.) were cultured/n vitro and the effect of various agents was tested on osteoblast cell proliferation. Osteoblasts were isolated and cultured according to literature methods. [J. E. Puzas, R. H. Drivdahl, A. G. Howard, and D. J. Baylink, Proc. Soc. Exper. Biol. Med., 166 113-122, […]]. Cells were harvested from large culture flasks, where they were allowed to grow to near confluency, using trypsin. The cells were plated into 96 well culture plates, 1600 cells in 100 μL per well in Dulbecco's Modified Eagle's Medium with 25 mM HEPES buffer, L-glutamine (584 mg/L); D-glucose (4.5 g/L) supplemented with fetal bovine sera (10%); penicillin (100 units/mL)and streptomycin (100 mcg/mL); sodium pyruvate (10 μM final concentration). The cells were allowed to plate overnight in DMEM containing 10% fetal bovine sera at 37° C., in an atmosphere of 5% CO2 /95% air. Following their placement into 96 well culture plates all the osteoblast-line cells, either the MC3T3-E 1 or the TE-85 cell lines, were allowed an additional 24 hours preincubation period in media containing only 0.1% fetal bovine sera. The next day the test compounds were added and screened at concentrations ranging from 10^-4 to 10^-8 M depending on the study. Twenty hours later, a 20 μL aliquot of media containing 0.4 μCi of ^3 H-thymidine was added to each culture well. The cells were then incubated an additional 4 hours. The incubation was terminated by aspirating the media and washing with HBSS (Hank's Balanced Salt Solution). The cells were then treated with 100 μL of 0.5% trypsin and […] of EDTA for 30 minutes at room temperature. The cells were then aspirated onto a glass fiber filter and washed with water. The radioactivity on the filters was quantified by liquid scintillation spectroscopy. The rate of ^3 H-thymidine incorporation into DNA is then utilized as an index of cell proliferation. The results are shown in Table 1 expressed as % times control where control is 100%.

## Cc1ccc(C(c2ccccc2)P(=O)(O)O)cc1 (centres unmarked) [Cmpd 22]
[1]
  IC50: 152 µM
[2]
  inhibition at 100 µM: 22%
[3]
  activity at 0.01 µM: 116%

## Cc1cccc(C(Cc2ccccc2)P(=O)(O)O)c1 (centres unmarked) [Cmpd 29]
[1]
  IC50: 290 µM
[2]
  inhibition at 100 µM: 15%
[3]
  activity at 0.01 µM: 99%

## O=P(O)(O)C(CCCCc1ccccc1)c1ccccc1 (centres unmarked) [Cmpd 10]
[1]
  IC50: 17.4 µM
[2]; read-out: OAPase IC50
  IC50: 100 µM
[3]
  activity at 0.01 µM: 124%

## O=P(O)(O)C(Cc1ccc(Cl)cc1)c1ccccc1 (centres unmarked) [Cmpd 33]
[1]
  IC50: 34.5 µM
[2]
  inhibition at 100 µM: 30%
[3]
  activity at 0.01 µM: 104%

## O=P(O)(O)C(c1ccccc1)c1ccccc1F (centres unmarked) [Cmpd 12]
[1]
  IC50: 40.9 µM
[2]
  inhibition at 100 µM: 12%
[3]
  activity at 0.01 µM: 124%

## Cc1cccc(C(Cc2ccc(Cl)cc2)P(=O)(O)O)c1 (centres unmarked) [Cmpd 30]
[1]
  IC50: 81.9 µM
[3]
  activity at 0.01 µM: 97%

## O=P(O)(O)C(Cc1ccccc1)c1ccccc1 (centres unmarked) [Cmpd 34]
[1]
  IC50: 89.2 µM
[2]
  inhibition at 100 µM: 15%
[3]
  activity at 0.01 µM: 156%
